Test system: 855422-203-R-J1-PDC complex spheroids, viability
Assay: Anticancer human tumor 855422-203-R-J1-PDC patient-derived bladder carcinoma cell line growth inhibition [CLK]
Conditions: for IC50: curve of first compound; for viability, T/C: stronger effect = lower value; active means viability on the fitted dose curve at most 10% of control; inactive means the rest
Excerpt: A high-throughput screen of multi-cell type tumor spheroids was designed to identify active combinations of […] and targeted small molecules. Complex spheroids include a stromal component modeled by human endothelial cells (HUVEC) and fibroblasts modeled by human mesenchymal stem cells (MSCs). The concentration ranges selected for each drug and investigational agent were based upon clinically achievable concentrations if the clinical Cmax of the agent was known.
Compounds. The drugs and investigational agents: cirtuvivint (SM08502; NSC835563), CC-671 (NSC850746), vemurafenib (NSC761431), tapotoclax (NSC804041), sotorasib (NSC818433), adagrasib (NSC831453), MRTX-1133 (NSC836407), BAY2416964 (NSC825713), copanlisib (NSC816437), inavolisib (NSC800729), abemaciclib (NSC768073), osimertinib (NSC779217), entinostat (NSC756642), eltanexor (KPT-8602, NSC794443), venetoclax (NSC766270), ceralasertib (NSC777638), bortezomib (NSC756655), olaparib (NSC753686), talazoparib (NSC767125), alisertib (NSC759677), peposertib (NSC802822), gemcitabine (NSC613327), 5-fluorouracil (NSC19893), SN-38 (NSC673596), oxaliplatin (NSC266046), paclitaxel (NSC125973), and doxorubicin (NSC123127), were obtained from the National Cancer Institute (NCI) Developmental Therapeutics Program Chemical Repository. The FDA-approved anticancer drug set is available from the Developmental Therapeutics Program at https://dtp.cancer.gov/organization/dscb/obtaining/available plates.htm. […] The stock solutions were prepared in dimethyl sulfoxide (DMSO, Sigma-Aldrich, St. Louis, MO, cat. D2650), except for the platinum complexes which were prepared in saline (Quality Biological, Gaithersburg, MD, cat. 114-055-101), at 800-fold the tested concentration and stored at -70 degrees C prior to their use. All drugs and investigational agents were tested over a range starting from a high concentration at or near the clinical Cmax and decreasing in half-log increments. If the clinical Cmax for an agent had not been determined, the highest concentration tested was 10 microM.
Cell Culture. All cells were maintained in an incubator at 37 degrees C and 5% CO2 with 95% humidity. The PDC lines were cultured according to standard operating procedures established by the NCI PDMR. Briefly, all PDCs were thawed and cultured in Matrigel-coated flasks prepared with a working solution of 1X Ham's F-12 nutrient mix, without supplementation (Invitrogen, Waltham, MA, cat. 11765054), 100 U/mL penicillin-streptomycin (Invitrogen, cat. 15140122), and 2.5% Matrigel (Corning Inc., Corning, NY, cat. 354248) for the first three passages. The 947758-054-R-J2-PDC line was cultured in 6B/Colon 1A media, which includes advanced DMEM/F-12 (Thermo Fisher Scientific, cat. 12634028), 10 mM HEPES (Thermo Fisher Scientific, cat. 15630080), 1X GlutaMAX supplement (Thermo Fisher Scientific, cat. 35050061), 0.1 mg/mL primocin (InvivoGen, cat. ant-pm-2), 10% defined fetal bovine serum, heat inactivated (HyClone Laboratories Inc., cat. SH30070.03HI), 1.25 mM N-Acetyl-L-cysteine (Sigma-Aldrich, cat. A9165), 10 mM nicotinamide (Sigma-Aldrich, cat. N0636), 1X B-27 supplement (Thermo Fisher Scientific, cat. 17504044), 1X N-2 supplement (Thermo Fisher Scientific, cat. 17502048), and 10 microM Y-27632 dihydrochloride (Tocris Bioscience, cat. 1254). The 876862-298-R-J1-PDC was cultured in 6E media, which includes all 6B/Colon 1A media components plus 50% L-WRN conditioned media (ATCC, cat. CRL-3276), 50 ng/mL recombinant human EGF recombinant protein (hEGF; Thermo Fisher Scientific, cat. PHG0311), 10 ng/mL recombinant human fibroblast growth factor 10 (hGFG-10; PeproTech, cat. 100-26), 1 ng/mL recombinant human fibroblast growth factor 2 (hFGF-2; PeproTech, cat. 100-18B), and 1 µM prostaglandin E2 (PGE2; Tocris, cat. 2296). The 227483-062-R1-J1-PDC line was cultured in Panc media, containing all 6E components except hFGF-2, with the addition of 500 nM SB-431542 (Selleckchem, cat. S1067) and 10 nM gastrin (Tocris, cat. 3006). […]

[1] = second compound 0.0316 µM, first compound 0.0316 µM
[2] = second compound 0.0316 µM, first compound 0.1 µM
[3] = second compound 0.0316 µM, first compound 0.316 µM
[4] = second compound 0.0316 µM, first compound 1 µM
[5] = second compound 0.0316 µM, first compound 3.16 µM
[6] = second compound 0.0316 µM, first compound 10 µM
[7] = second compound 0.1 µM, first compound 0.0316 µM
[8] = second compound 0.1 µM, first compound 0.1 µM
[9] = second compound 0.1 µM, first compound 0.316 µM
[10] = second compound 0.1 µM, first compound 1 µM
[11] = second compound 0.1 µM, first compound 3.16 µM
[12] = second compound 0.1 µM, first compound 10 µM
[13] = second compound 0.316 µM, first compound 0.0316 µM
[14] = second compound 0.316 µM, first compound 0.1 µM
[15] = second compound 0.316 µM, first compound 0.316 µM
[16] = second compound 0.316 µM, first compound 1 µM
[17] = second compound 0.316 µM, first compound 3.16 µM
[18] = second compound 0.316 µM, first compound 10 µM
[19] = second compound 1 µM, first compound 0.0316 µM
[20] = second compound 1 µM, first compound 0.1 µM
[21] = second compound 1 µM, first compound 0.316 µM
[22] = second compound 1 µM, first compound 1 µM
[23] = second compound 1 µM, first compound 3.16 µM
[24] = second compound 1 µM, first compound 10 µM
[25] = second compound 3.16 µM, first compound 0.0316 µM
[26] = second compound 3.16 µM, first compound 0.1 µM
[27] = second compound 3.16 µM, first compound 0.316 µM
[28] = second compound 3.16 µM, first compound 1 µM
[29] = second compound 3.16 µM, first compound 3.16 µM
[30] = second compound 3.16 µM, first compound 10 µM
[31] = second compound 10 µM, first compound 0.0316 µM
[32] = second compound 10 µM, first compound 0.1 µM
[33] = second compound 10 µM, first compound 0.316 µM
[34] = second compound 10 µM, first compound 1 µM
[35] = second compound 10 µM, first compound 3.16 µM
[36] = second compound 10 µM, first compound 10 µM
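Further: spheroids exposed to drugs for seven days before readout.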
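Wherever viability, T/C is given: 100% = DMSO vehicle control wells.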

COc1cccc2c1C(=O)c1c(O)c3c(c(O)c1C2=O)CC(O)(C(=O)CO)CC3OC1CC(N)C(O)C(C)O1 (stereo unspecified) + CN1CCN(c2cc(C(=O)Nc3cc4cc(-c5cnn(C)c5)ccc4cn3)ccn2)CC1
active: viability, T/C [1] 8.97% | viability, T/C [2] 3.16% | viability, T/C [3] 0.95% | viability, T/C [4] 0.46% | viability, T/C [5] 0.59% | viability, T/C [6] 1.01% | viability, T/C [7] 8.75% | viability, T/C [8] 1.14% | viability, T/C [9] 0.71% | viability, T/C [10] 1.31% | viability, T/C [11] 0.35% | viability, T/C [12] 0.34% | viability, T/C [13] 1.19% | viability, T/C [14] 1.5% | viability, T/C [15] 0.36% | viability, T/C [16] 0.28% | viability, T/C [17] 0.35% | viability, T/C [18] 0.27% | viability, T/C [19] 0.21% | viability, T/C [20] 0.29% | viability, T/C [21] 0.23% | viability, T/C [22] 0.31% | viability, T/C [23] 0.39% | viability, T/C [24] 0.81% | viability, T/C [25] 0.29% | viability, T/C [26] 0.57% | viability, T/C [27] 0.22% | viability, T/C [28] 0.22% | viability, T/C [29] 0.42% | viability, T/C [30] 0.22% | viability, T/C [31] 0.09% | viability, T/C [32] 0.17% | viability, T/C [33] 1.68% | viability, T/C [34] 0.13% | viability, T/C [35] 0.76% | viability, T/C [36] 1.02%
< 31.6 nM: IC50 (second compound 0.0316 µM) | IC50 (second compound 0.1 µM) | IC50 (second compound 0.316 µM) | IC50 (second compound 1 µM) | IC50 (second compound 3.16 µM) | IC50 (second compound 10 µM)

C=CC(=O)N1CCN(c2nc(=O)n(-c3c(C)ccnc3C(C)C)c3nc(-c4c(O)cccc4F)c(F)cc23)C(C)C1 (stereo unspecified) + CNC(=O)c1ccc(Nc2nc(OC3CCCC3)c3c(-c4ccc5nc(C)oc5c4)c[nH]c3n2)c(OC)c1
inactive: viability, T/C [1] 78.8% | viability, T/C [2] 91.5% | viability, T/C [3] 104% | viability, T/C [4] 103% | viability, T/C [5] 179% | viability, T/C [6] 127% | viability, T/C [7] 47.5% | viability, T/C [8] 50.9% | viability, T/C [9] 45.8% | viability, T/C [10] 41.6% | viability, T/C [11] 43.5% | viability, T/C [12] 23.9% | viability, T/C [13] 21.1% | viability, T/C [14] 19% | viability, T/C [15] 21.8% | viability, T/C [16] 27% | viability, T/C [17] 22.7% | viability, T/C [18] 23.4% | viability, T/C [19] 21.2% | viability, T/C [20] 17.7% | viability, T/C [21] 21% | viability, T/C [22] 22.5% | viability, T/C [23] 21.5% | viability, T/C [24] 19.4% | viability, T/C [25] 16.2% | viability, T/C [26] 18.3% | viability, T/C [27] 18.6% | viability, T/C [28] 18.9% | viability, T/C [29] 17% | viability, T/C [30] 14.1% | viability, T/C [31] 19.4% | viability, T/C [32] 17.1% | viability, T/C [33] 19.5% | viability, T/C [34] 29.2% | viability, T/C [35] 17.6% | viability, T/C [36] 16.7%
> 10000 nM: IC50 (second compound 0.0316 µM)
< 31.6 nM: IC50 (second compound 0.1 µM) | IC50 (second compound 0.316 µM) | IC50 (second compound 1 µM) | IC50 (second compound 3.16 µM) | IC50 (second compound 10 µM)

CCN1CCN(Cc2ccc(Nc3ncc(F)c(-c4cc(F)c5nc(C)n(C(C)C)c5c4)n3)nc2)CC1 + CN1CCN(c2cc(C(=O)Nc3cc4cc(-c5cnn(C)c5)ccc4cn3)ccn2)CC1
262 nM: IC50 (second compound 0.0316 µM)
active: viability, T/C (second compound 1 µM, first compound 0.00316 µM) 0.35% | viability, T/C (second compound 1 µM, first compound 0.01 µM) 0.82% | viability, T/C [19] 1.18% | viability, T/C [20] 0.5% | viability, T/C [21] 0.97% | viability, T/C [22] 1.71% | viability, T/C (second compound 3.16 µM, first compound 0.00316 µM) 0.55% | viability, T/C (second compound 3.16 µM, first compound 0.01 µM) 1.57% | viability, T/C [25] 0.95% | viability, T/C [26] 0.83% | viability, T/C [27] 2.86% | viability, T/C [28] 2.68% | viability, T/C (second compound 10 µM, first compound 0.00316 µM) 0.5% | viability, T/C (second compound 10 µM, first compound 0.01 µM) 0.53% | viability, T/C [31] 0.3% | viability, T/C [32] 0.46% | viability, T/C [33] 0.64% | viability, T/C [34] 0.65%
< 3.16 nM: IC50 (second compound 0.316 µM) | IC50 (second compound 1 µM) | IC50 (second compound 3.16 µM) | IC50 (second compound 10 µM)
158 nM: IC50 (second compound 0.1 µM)
inactive: viability, T/C (second compound 0.0316 µM, first compound 0.00316 µM) 82.8% | viability, T/C (second compound 0.0316 µM, first compound 0.01 µM) 97.1% | viability, T/C [1] 87.7% | viability, T/C [2] 56.2% | viability, T/C [3] 54.6% | viability, T/C [4] 42.9% | viability, T/C (second compound 0.1 µM, first compound 0.00316 µM) 66.3% | viability, T/C (second compound 0.1 µM, first compound 0.01 µM) 72.4% | viability, T/C [7] 76.2% | viability, T/C [8] 59.9% | viability, T/C [9] 34.8% | viability, T/C [10] 30.4% | viability, T/C (second compound 0.316 µM, first compound 0.00316 µM) 7.42% | viability, T/C (second compound 0.316 µM, first compound 0.01 µM) 10.2% | viability, T/C [13] 14.1% | viability, T/C [14] 13.1% | viability, T/C [15] 18% | viability, T/C [16] 14.3%
